Results published in ChEMBL document CHEMBL5724696, “Autophagy assay results for EUbOPEN Chemogenomics Library” (2024).

Tests used:
Format in all cases: functional, Homo sapiens
TERT-RPE1 = test: (§1) Here: values are normalized to the negative (DMSO; defined as 0% autophagy induction) and positive (250nM Torin1; mTOR inhibitor; defined as maximal inducer of autophagy = 100%) control compounds and represented as % of autophagy induction. […] The impact of autophagy induction on cells is complex and depends on the affected target. As such, the magnitude of a phenotype may not be equally mirrored in the %-value of autophagy induction and vice versa. The dynamics of the induction may indicate the mode of activation: e.g. activation via phosphorylation or a signaling cascade may occur fast, while activation via transcription factors may take considerably longer. […] Of note, treatment concentrations may be sub-optimal for specific compounds, leading to false negative annotations.; conditions: Culturing Media DMEM/F12 (1:1), 1 % Penicillin/Streptomycin, 10% Fetal bovin serum Add-On: No, Screening Media Control DMEM/F12 (1:1), Screening Media Samples DMEM/F12 (1:1)
U2OS [1] = test: as §1; conditions: Culturing Media DMEM, 1 % Penicillin/Streptomycin, 10% Fetal bovin serum Add-On: No, Screening Media Control DMEM, Screening Media Samples DMEM
U2OS [2] = test: as §1; conditions: Culturing Media DMEM, 1 % Penicillin/Streptomycin, 10% Fetal bovin serum Add-On: No, Screening Media Control DMEM, Screening Media Samples DMEM; remark: listed apart in the source
[3] = Compound Concentration 0.5 uM, Timepoint 12 hours
[4] = Compound Concentration 0.5 uM, Timepoint 24 hours
[5] = Compound Concentration 0.5 uM, Timepoint 36 hours
[6] = Compound Concentration 0.5 uM, Timepoint 60 hours
[7] = Compound Concentration 2 uM, Timepoint 12 hours
[8] = Compound Concentration 2 uM, Timepoint 24 hours
[9] = Compound Concentration 2 uM, Timepoint 36 hours
[10] = Compound Concentration 2 uM, Timepoint 60 hours
[11] = Compound Concentration 10 uM, Timepoint 12 hours
[12] = Compound Concentration 10 uM, Timepoint 24 hours
[13] = Compound Concentration 10 uM, Timepoint 36 hours
[14] = Compound Concentration 10 uM, Timepoint 60 hours

| SMILES | autophagy induction (TERT-RPE1; [3]) [%] | autophagy induction (TERT-RPE1; [4]) [%] | autophagy induction (TERT-RPE1; [5]) [%] | autophagy induction (TERT-RPE1; [6]) [%] | autophagy induction (TERT-RPE1; [7]) [%] | autophagy induction (TERT-RPE1; [8]) [%] | autophagy induction (TERT-RPE1; [9]) [%] | autophagy induction (TERT-RPE1; [10]) [%] | autophagy induction (TERT-RPE1; [11]) [%] | autophagy induction (TERT-RPE1; [12]) [%] | autophagy induction (TERT-RPE1; [13]) [%] | autophagy induction (TERT-RPE1; [14]) [%] | autophagy induction (U2OS [1]; [3]) [%] | autophagy induction (U2OS [1]; [4]) [%] | autophagy induction (U2OS [1]; [5]) [%] | autophagy induction (U2OS [1]; [6]) [%] | autophagy induction (U2OS [1]; [7]) [%] | autophagy induction (U2OS [1]; [8]) [%] | autophagy induction (U2OS [1]; [9]) [%] | autophagy induction (U2OS [1]; [10]) [%] | also measured |
| --- | --- | --- | --- | --- | --- | --- | --- | --- | --- | --- | --- | --- | --- | --- | --- | --- | --- | --- | --- | --- | --- |
| CC(C)NC(=O)c1ccc(C#Cc2ccncc2)cn1 | -8.654 | -9.257 | -14.0532 | -16.4507 | -4.036 | -5.1239 | -6.815 | -8.286 | 1.565 | 2.778 | 9.008 | 16.9694 | -9.113 | -5.012 | -3.818 | -1.861 | -10.7877 | -3.358 | -2.622 | -1.746 | autophagy induction (U2OS [1]; [11]): -0.7026%; autophagy induction (U2OS [1]; [12]): -0.9948%; autophagy induction (U2OS [1]; [13]): -1.134%; autophagy induction (U2OS [1]; [14]): -0.8185%; autophagy induction (U2OS [2]; [3]): 0.5322%; autophagy induction (U2OS [2]; [4]): 0.2252%; autophagy induction (U2OS [2]; [5]): -0.5555%; autophagy induction (U2OS [2]; [6]): 0.1744%; autophagy induction (U2OS [2]; [7]): 1.689%; autophagy induction (U2OS [2]; [8]): 1.76%; autophagy induction (U2OS [2]; [9]): 0.3174%; autophagy induction (U2OS [2]; [10]): -4.895%; autophagy induction (U2OS [2]; [11]): -23.095%; autophagy induction (U2OS [2]; [12]): -7.509%; autophagy induction (U2OS [2]; [13]): -0.1897%; autophagy induction (U2OS [2]; [14]): 10.5553% |
| O=C1N/C(=N/c2ccccc2F)S/C1=C\c1ccc(C(=O)O)cc1 | -10.0262 | -9.4115 | -12.0012 | -17.4269 | -2.621 | -7.325 | -9.455 | -13.9846 | -9.926 | -10.0998 | -12.1834 | -11.0664 | 1.731 | 0.03156 | -1.478 | 0.04429 | 4.489 | 0.7124 | -0.5769 | 0.3402 | autophagy induction (U2OS [1]; [11]): -30.0859%; autophagy induction (U2OS [1]; [12]): -13.2121%; autophagy induction (U2OS [1]; [13]): -8.741%; autophagy induction (U2OS [1]; [14]): -4.602%; autophagy induction (U2OS [2]; [3]): -6.588%; autophagy induction (U2OS [2]; [4]): -6.026%; autophagy induction (U2OS [2]; [5]): -1.651%; autophagy induction (U2OS [2]; [6]): -8.214%; autophagy induction (U2OS [2]; [7]): 1.845%; autophagy induction (U2OS [2]; [8]): 3.048%; autophagy induction (U2OS [2]; [9]): 0.4254%; autophagy induction (U2OS [2]; [10]): -3.587%; autophagy induction (U2OS [2]; [11]): 7.038%; autophagy induction (U2OS [2]; [12]): 3.001%; autophagy induction (U2OS [2]; [13]): 3.146%; autophagy induction (U2OS [2]; [14]): -8.731% |
